Experimental data as given in patent US20250163104A1, “MACROCYCLIC IMMUNOMODULATORS” (priority 2021, published 2025).
pIC50: −log10 of the molar value. *1 amine or outer side, *2 acyl side, *3 side chain or, on linkers, in order; H or OH if unused. Where a SMILES comes first, the peptide text is derived from it. Bridges are numbered along the chain shown (N, C = ends). [ ]: non-standard residue; d: D form. The star is where a group is joined. ξ: configuration not given here. Ala(morpholin-4-yl) = N[C@@H](CN1CCOCC1)C(=O)O; Phe(4-COOH) = N[C@@H](Cc1ccc(C(=O)O)cc1)C(=O)O; Bip = N[C@@H](Cc1ccc(-c2ccccc2)cc1)C(=O)O; X7 = CC(=N)NCCC[C@@H](N[*:1])C(=O)[*:2]; Phe(3-F) = N[C@@H](Cc1cccc(F)c1)C(=O)O; Phe(3-Me) = Cc1cccc(C[C@H](N)C(=O)O)c1; Phe(2-F) = N[C@@H](Cc1ccccc1F)C(=O)O; aIle = CC[C@@H](C)[C@H](N)C(=O)O; 4Pal = N[C@@H](Cc1ccncc1)C(=O)O; Cha = N[C@@H](CC1CCCCC1)C(=O)O; Ile(3ξ) = CCC(C)[C@H](N)C(=O)O; dCha = N[C@H](CC1CCCCC1)C(=O)O; Thr(3ξ) = CC(O)[C@H](N)C(=O)O; Carboxymethyl = O=C(O)C*; Nle = CCCC[C@H](N)C(=O)O; Orn = NCCC[C@H](N)C(=O)O; Pra = C#CC[C@H](N)C(=O)O; Dab = NCC[C@H](N)C(=O)O; Dap = NC[C@H](N)C(=O)O; Ac3c = NC1(C(=O)O)CC1; Propargyl = C#CC*

These compounds were tested against T1, human PD-1 / PD-L1-Ig binding on Jurkat cell line over-expressing human PD-1 (Jurkat-PD-1) (Homo sapiens, UniProt Q15116) (assay: Jurkat-PD-1 Cell Binding High-Content Screening Assay (CBA)). Conditions: Jurkat HPD1_PDL1 IC50, Jurkat-PD-1 cells, PE-labeled PD-L1-Ig 20 nM final.
T1 construct: expressed in transfected cells; host or cells: Jurkat
Assay type: cell-based
Protocol: Example 3. Jurkat-PD-1 Cell Binding High-Content Screening Assay (CBA)
Jurkat-PD-1 Cell Binding High-Content Screening Assay (CBA). Phycoerythrin (PE) was covalently linked to the Ig epitope tag of human PD-L1-Ig and fluorescently-labeled PD-L1-Ig was used for binding studies with a Jurkat cell line over-expressing human PD-1 (Jurkat-PD-1). Briefly, 8×10^3 Jurkat-hPD-1 cells were seeded into 384 well plates in 20 μl of DMEM supplemented with 10% fetal calf serum. 100 nL of compound was added to cells followed by incubation at 37° C. for 2 h. Then, 5 μl of PE-labeled PD-L1-Ig (20 nM final), diluted in DMEM supplemented with 10% fetal calf serum. After 1 hour incubation, cells were fixed with 4% paraformaldehyde in dPBS containing 10 μg/ml Hoechst 33342 and then washed 3x in 100 μl dPBS. Data was collected and processed using a Cell Insight NXT High Content Imager and associated software.

T1 sequence (Q15116 25-288): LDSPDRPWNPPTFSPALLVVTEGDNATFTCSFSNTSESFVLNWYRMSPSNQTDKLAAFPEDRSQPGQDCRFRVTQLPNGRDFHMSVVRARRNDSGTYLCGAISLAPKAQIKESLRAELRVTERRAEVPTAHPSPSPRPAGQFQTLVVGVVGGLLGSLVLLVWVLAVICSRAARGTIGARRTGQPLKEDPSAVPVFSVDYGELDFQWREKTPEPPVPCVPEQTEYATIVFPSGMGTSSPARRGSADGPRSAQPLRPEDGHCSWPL

**Q.** How did the pIC50 turn out when `CC(C)C[C@H]1NC(=O)[C@H](CCCN)NC(=O)[C@H](CCCNC(N)=O)NC(=O)[C@H](Cc2ccc(-c3ccccc3)cc2)NC(=O)[C@H](C(C)C)NC(=O)[C@H](Cc2c[nH]c3ccccc23)NC(=O)[C@H](CC(=O)O)NC(=O)[C@H](Cc2ccc(C(=O)O)cc2)NC(=O)[C@H](Cc2ccncc2)NC(=O)CSC[C@@H](C(=O)N[C@@H](C)C(N)=O)NC(=O)[C@H]([C@@H](C)O)NC(=O)[C@H](C(C)C)NC(=O)[C@H](CC2CCCCC2)NC(=O)[C@H](Cc2c[nH]cn2)NC1=O` [Compound 1598] was run?
**A.** 8.00

Same assay, conditions: Jurkat-PD-1 cells, PE-labeled PD-L1-Ig 20 nM final; read-out: Jurkat HPD1_PDL1 IC50

**Q.** With `CC(C)C[C@H]1NC(=O)[C@H](CCCN)NC(=O)[C@H](CCC(=O)O)NC(=O)[C@H](Cc2ccc(-c3ccccc3)cc2)NC(=O)[C@H](C(C)C)NC(=O)[C@H](Cc2cccc(Cl)c2)NC(=O)[C@H](CC(=O)O)NC(=O)[C@H](Cc2ccc(O)cc2)NC(=O)[C@H](Cc2ccncc2)NC(=O)CSC[C@@H](C(=O)N[C@@H](C)C(N)=O)NC(=O)[C@H]([C@@H](C)O)NC(=O)[C@H](C(C)C)NC(=O)[C@H](CC2CCCCC2)NC(=O)[C@H](CCN)NC1=O` [Compound 1489] as the compound, how does the pIC50 read?
**A.** 7.87

**Q.** With `CCC(C)[C@@H]1NC(=O)[C@H](Cc2ccc(-c3ccccc3)cc2)NC(=O)[C@H](C(C)C)NC(=O)[C@H](Cc2cccc(C)c2)NC(=O)[C@H](CC(=O)O)NC(=O)[C@H](Cc2ccc(C(=O)O)cc2)NC(=O)[C@H](Cc2ccncc2)NC(=O)CSC[C@@H](C(N)=O)NC(=O)[C@H](CCC(N)=O)NC(=O)[C@H](C(C)C)NC(=O)[C@H](CC2CCCCC2)NC(=O)[C@H](CCN)NC(=O)[C@@H](CC(C)C)NC(=O)[C@H](CCCN)NC1=O` (stereo partly drawn) [Compound 2280] ({CH2CO}-[4Pal][Phe(4-COOH)]D[Phe(3-Me)]V[Bip][Ile(3ξ)][Orn][dL][Dab][Cha]VQC-NH2; thioether N-14) as the compound, how does the pIC50 read?
**A.** 7.39

**Q.** With `CC(C)C[C@@H]1NC(=O)[C@H](Cc2c[nH]c3ccccc23)NC(=O)[C@H](CC(=O)O)NC(=O)[C@H](Cc2ccc(OCC(=O)O)cc2)NC(=O)[C@H](C(C)O)NC(=O)CSC[C@@H](C(N)=O)NC(=O)[C@H](CO)NC(=O)[C@H](C(C)C)NC(=O)[C@H](CC2CCCCC2)NC(=O)[C@H](CCC(=O)O)NC(=O)[C@@H](CC(C)C)NC(=O)[C@H](Cc2cnc[nH]2)NC(=O)[C@H](C(C)C)NC(=O)[C@H](Cc2ccc(-c3ccccc3)cc2)NC1=O` (stereo partly drawn) [Compound 2610] ({CH2CO}-[Thr(3ξ)]Y(Carboxymethyl)DWL[Bip]VH[dL]E[Cha]VSC-NH2; thioether N-14) as the compound, how does the pIC50 read?
**A.** 7.11

**Q.** With `CC(C)[C@@H]1NC(=O)[C@H](Cc2c[nH]c3ccccc23)NC(=O)[C@H](CC(=O)O)NC(=O)[C@H](Cc2ccncc2)NC(=O)[C@H](CN)NC(=O)CSC[C@@H](C(=O)N[C@@H](C)C(N)=O)NC(=O)[C@H]([C@@H](C)O)NC(=O)[C@H](C(C)C)NC(=O)[C@H](CC2CCCCC2)NC(=O)[C@H](CCN)NC(=O)[C@@H](Cc2ccccc2)NC(=O)[C@H](CCCN)NC(=O)[C@H](CCC(=O)O)NC(=O)[C@H](Cc2ccc(-c3ccccc3)cc2)NC1=O` [Compound 1433] ({CH2CO}-[Dap][4Pal]DWV[Bip]E[Orn][dF][Dab][Cha]VTCA-NH2; thioether N-14) as the compound, how does the pIC50 read?
**A.** 7.39

**Q.** With `CC[C@H](C)[C@@H]1NC(=O)[C@H](Cc2ccc(-c3ccccc3)cc2)NC(=O)[C@H](C(C)C)NC(=O)[C@H](Cc2c[nH]c3ccccc23)NC(=O)[C@H](CC(=O)O)NC(=O)[C@H](Cc2ccc(OCC(=O)O)cc2)NC(=O)[C@H](CN)NC(=O)CSC[C@@H](C(=O)N[C@@H](C)C(N)=O)NC(=O)[C@H]([C@@H](C)O)NC(=O)[C@H](C(C)C)NC(=O)[C@H](Cc2cccc(F)c2)NC(=O)[C@H](CCN)NC(=O)[C@@H](CC(C)C)NC(=O)[C@H](CCCN)NC1=O` [Compound 1669] ({CH2CO}-[Dap]Y(Carboxymethyl)DWV[Bip]I[Orn][dL][Dab][Phe(3-F)]VTCA-NH2; thioether N-14) as the compound, how does the pIC50 read?
**A.** 7.63

**Q.** With `CC(=N)NCCC[C@@H](NC(=O)[C@@H]1CSCC(=O)N[C@@H](Cc2ccc(OCC(=O)O)cc2)C(=O)N[C@@H](Cc2ccc(C(=O)O)cc2)C(=O)N[C@@H](CC(=O)O)C(=O)N[C@@H](Cc2cccc(C)c2)C(=O)N[C@@H](C(C)C)C(=O)N[C@@H](Cc2ccc(-c3ccccc3)cc2)C(=O)N[C@@H](C(C)C)C(=O)N[C@@H](CCN)C(=O)N[C@H](CC(C)C)C(=O)N[C@@H](CCN)C(=O)N[C@@H](CC2CCCCC2)C(=O)N[C@@H](C(C)C)C(=O)N[C@@H](CCCN)C(=O)N1)C(=O)O` [Compound 2588] ({CH2CO}-Y(Carboxymethyl)[Phe(4-COOH)]D[Phe(3-Me)]V[Bip]V[Dab][dL][Dab][Cha]V[Orn]C[X7]-OH; thioether N-14) as the compound, how does the pIC50 read?
**A.** 8.00

**Q.** How did the pIC50 turn out when `CC(C)C[C@H]1NC(=O)[C@H](CCCN)NC(=O)[C@H](CCC(=O)O)NC(=O)[C@H](Cc2ccc(-c3ccccc3)cc2)NC(=O)[C@H](C(C)C)NC(=O)[C@H](Cc2ccccc2F)NC(=O)[C@H](CC(=O)O)NC(=O)[C@H](Cc2ccncc2)NC(=O)[C@H](Cc2ccccc2)NC(=O)CSC[C@@H](C(=O)N[C@@H](C)C(N)=O)NC(=O)[C@H]([C@@H](C)O)NC(=O)[C@H](C(C)C)NC(=O)[C@H](CC2CCCCC2)NC(=O)[C@H](CCN)NC1=O` [Compound 2208] ({CH2CO}-F[4Pal]D[Phe(2-F)]V[Bip]E[Orn][dL][Dab][Cha]VTCA-NH2; thioether N-14) was run?
**A.** 7.51

**Q.** How did the pIC50 turn out when `C#CCOc1ccc(C[C@@H]2NC(=O)[C@H](Cc3cccc(C)c3)NC(=O)[C@H](CC(=O)O)NC(=O)[C@H](Cc3ccc(C(=O)O)cc3)NC(=O)[C@H](CCCC)NC(=O)CSC[C@@H](C(=O)N[C@@H](CCN)C(N)=O)NC(=O)[C@H](CCC(=O)O)NC(=O)[C@H](C(C)C)NC(=O)[C@H](CC3CCCCC3)NC(=O)[C@H](CCN)NC(=O)[C@@H](CC(C)C)NC(=O)[C@H](CCCN)NC(=O)[C@H](Cc3ccc(C(=O)O)cc3)NC(=O)[C@H](Cc3ccc(-c4ccccc4)cc3)NC2=O)cc1` [Compound 1842] ({CH2CO}-[Nle][Phe(4-COOH)]D[Phe(3-Me)]Y(Propargyl)[Bip][Phe(4-COOH)][Orn][dL][Dab][Cha]VEC[Dab]-NH2; thioether N-14) was run?
**A.** 8.92

**Q.** With `CC[C@H](C)[C@@H]1NC(=O)[C@H](Cc2ccc(-c3ccccc3)cc2)NC(=O)[C@H](C(C)C)NC(=O)[C@H](Cc2c[nH]c3ccccc23)NC(=O)[C@H](CC(=O)O)NC(=O)[C@H](Cc2ccc(O)cc2)NC(=O)[C@H](CN)NC(=O)CSC[C@@H](C(=O)N[C@@H](C)C(N)=O)NC(=O)[C@H]([C@@H](C)O)NC(=O)[C@H](C(C)C)NC(=O)[C@H](CC(C)C)NC(=O)[C@H](CCN)NC(=O)[C@@H](CC(C)C)NC(=O)[C@H](CCCN)NC1=O` [Compound 1056] ({CH2CO}-[Dap]YDWV[Bip]I[Orn][dL][Dab]LVTCA-NH2; thioether N-14) as the compound, how does the pIC50 read?
**A.** 8.07

**Q.** How did the pIC50 turn out when `Cc1cccc(C[C@@H]2NC(=O)[C@H](CC(=O)O)NC(=O)[C@H](Cc3ccc(OCC(=O)O)cc3)NC(=O)[C@H](Cc3ccncc3)NC(=O)CSC[C@@H](C(=O)NC3(C(N)=O)CC3)NC(=O)[C@H](CO)NC(=O)[C@H](C(C)C)NC(=O)[C@H](CC3CCCCC3)NC(=O)[C@H](CCN)NC(=O)[C@@H](CC(C)C)NC(=O)[C@H](CCCN)NC(=O)[C@H](Cc3ccc(OCC(=O)O)cc3)NC(=O)[C@H](Cc3ccc(-c4ccccc4)cc3)NC(=O)[C@H](Cc3ccc(OCC(=O)O)cc3)NC2=O)c1` [Compound 2064] ({CH2CO}-[4Pal]Y(Carboxymethyl)D[Phe(3-Me)]Y(Carboxymethyl)[Bip]Y(Carboxymethyl)[Orn][dL][Dab][Cha]VSC[Ac3c]-NH2; thioether N-14) was run?
**A.** 7.93

**Q.** How did the pIC50 turn out when `C#CC[C@H](NC(=O)[C@H](CCN)NC(=O)[C@@H]1CSCC(=O)N[C@@H](CN2CCOCC2)C(=O)N[C@@H](Cc2ccc(OCC(=O)O)cc2)C(=O)N[C@@H](CC(=O)O)C(=O)N[C@@H](Cc2cccc(C)c2)C(=O)N[C@@H](Cc2ccc(OCC(=O)O)cc2)C(=O)N[C@@H](Cc2ccc(-c3ccccc3)cc2)C(=O)N[C@@H](Cc2ccc(OCC(=O)O)cc2)C(=O)N[C@@H](CCCN)C(=O)N[C@H](CC(C)C)C(=O)N[C@@H](CCN)C(=O)N[C@@H](CC2CCCCC2)C(=O)N[C@@H](C(C)C)C(=O)N[C@@H](CO)C(=O)N1)C(N)=O` [Compound 1863] ({CH2CO}-[Ala(morpholin-4-yl)]Y(Carboxymethyl)D[Phe(3-Me)]Y(Carboxymethyl)[Bip]Y(Carboxymethyl)[Orn][dL][Dab][Cha]VSC[Dab][Pra]-NH2; thioether N-14) was run?
**A.** 8.37

**Q.** With `CCCC[C@H]1NC(=O)[C@H](CCCN)NC(=O)[C@H]([C@@H](C)CC)NC(=O)[C@H](Cc2ccc(-c3ccccc3)cc2)NC(=O)[C@H](C(C)C)NC(=O)[C@H](Cc2c[nH]c3ccccc23)NC(=O)[C@H](CC(=O)O)NC(=O)[C@H](Cc2ccc(OCC(=O)O)cc2)NC(=O)[C@H](CN)NC(=O)CSC[C@@H](C(=O)N[C@@H](C)C(N)=O)NC(=O)[C@H]([C@@H](C)O)NC(=O)[C@H](C(C)C)NC(=O)[C@H](CC2CCCCC2)NC(=O)[C@H](CCN)NC1=O` [Compound 1708] as the compound, how does the pIC50 read?
**A.** 7.64

**Q.** With `CC[C@@H](C)[C@@H]1NC(=O)[C@H](Cc2ccc(-c3ccccc3)cc2)NC(=O)[C@H](C(C)C)NC(=O)[C@H](Cc2c[nH]c3ccccc23)NC(=O)[C@H](CC(=O)O)NC(=O)[C@H](Cc2ccncc2)NC(=O)[C@H](CN)NC(=O)CSC[C@@H](C(=O)N[C@@H](C)C(N)=O)NC(=O)[C@H]([C@@H](C)O)NC(=O)[C@H](C(C)C)NC(=O)[C@H](CC2CCCCC2)NC(=O)[C@H](CCN)NC(=O)[C@@H](CC2CCCCC2)NC(=O)[C@H](CCCN)NC1=O` [Compound 1630] ({CH2CO}-[Dap][4Pal]DWV[Bip][aIle][Orn][dCha][Dab][Cha]VTCA-NH2; thioether N-14) as the compound, how does the pIC50 read?
**A.** 7.32
